Read-outs that look alike come from different tables or passages of the source.
Columns and labels:
Format in all cases: cell-based
Botrytis cinerea = experiment: Fungicidal activity against Botrytis cinerea, micro titer plate (MTP) test; conditions: Botrytis cinerea, 168 h, read-out: Observed efficacy; for inhibition of growth at […]: 0.25 ppm
Pyricularia oryzae = experiment: microbe, parasite or virus in culture; conditions: Pyricularia oryzae, 168 h, read-out: Observed efficacy
Septoria tritici = experiment: Fungicidal activity against Septoria tritici, micro titer plate (MTP) test; conditions: Zymoseptoria tritici, 168 h, read-out: Observed efficacy
[1] = test system: Colletotrichum orbiculare; experiment: Fungicidal activity against Colletotrichum orbiculare in the microtiterplate test; conditions: Colletotrichum orbiculare, read-out: Observed efficacy
Leptosphaeria nodorum = experiment: Fungicidal activity against Leptosphaeria nodorum, microtiter plate (MTP) test; conditions: Parastagonospora nodorum, 168 h, read-out: Observed efficacy

CNC(=O)c1ccc(-c2noc(C(F)(F)F)n2)cc1 [I.A, N-methyl-4-[5-(trifluoromethyl)-1,2,4-oxadiazol-3-yl]benzamide]
inhibition of growth at […] (Botrytis cinerea; I.A alone): 3% | inhibition of growth at 4 ppm (Botrytis cinerea; I.A alone, 4 ppm): 1% | inhibition of growth at 16 ppm (Botrytis cinerea; I.A alone, 16 ppm): 12% | inhibition of growth at 1 ppm (Pyricularia oryzae): 6% | inhibition of growth at 4 ppm (Pyricularia oryzae): 12% | inhibition of growth at 16 ppm (Pyricularia oryzae): 38% | inhibition of growth at […] (Septoria tritici; Table V.7, I.A alone, 0.063 ppm): 3% | inhibition of growth at […] (Septoria tritici; Table V.7, I.A alone, 0.25 ppm): 2% | inhibition of growth at 1 ppm (Septoria tritici; Table V.7, I.A alone, 1 ppm): 0% | inhibition of growth at 4 ppm (Septoria tritici; Table V.7, I.A alone, 4 ppm): 8% | inhibition of growth at 16 ppm (Septoria tritici; Table V.7, I.A alone, 16 ppm): 19% | inhibition of growth at […] ([1]; 0.00025 ppm): 2% | inhibition of growth at 0.001 ppm ([1]; 0.001 ppm): 2% | inhibition of growth at 0.004 ppm ([1]; 0.004 ppm): 2% | inhibition of growth at […] ([1]; 0.016 ppm): 2% | inhibition of growth at […] ([1]; 0.063 ppm): 71% | inhibition of growth at […] (Leptosphaeria nodorum; 0.063 ppm): 3% | inhibition of growth at 1 ppm (Leptosphaeria nodorum): 6% | inhibition of growth at 4 ppm (Leptosphaeria nodorum; 4 ppm): 14% | inhibition of growth at 16 ppm (Leptosphaeria nodorum; 16 ppm): 27%

O=C1C2CC=CCC2C(=O)N1SC(Cl)(Cl)Cl (stereo not drawn) [Captan, captan]
inhibition of growth at […] (Botrytis cinerea; component B alone): 20% | inhibition of growth at 1 ppm (Botrytis cinerea; component B alone, 1 ppm): 73% | inhibition of growth at 1 ppm (Pyricularia oryzae): 53% | inhibition of growth at […] (Septoria tritici; Table V.4, component B alone, 0.25 ppm): 22% | inhibition of growth at […] ([1]; 0.25 ppm): 21% | inhibition of growth at […] (Leptosphaeria nodorum; 0.25 ppm): 13% | inhibition of growth at 1 ppm (Leptosphaeria nodorum): 44%

— patent US20210084902A1, “FUNGICIDAL MIXTURE COMPRISING SUBSTITUTED 3-PHENYL-5-(TRIFLUOROMETHYL)-1,2,4-OXADIAZOLES” (BASF SE, priority 2017, published 2021)
